From patent US10988474B2, “Compounds acting at multiple prostaglandin receptors giving a general anti-inflammatory response” (ALLERGAN, INC., priority 2011, dated 2021)

Legend:
Assay type in all cases: cell-based
[1] = biological target: T1, human prostanoid DP1 receptor (Homo sapiens, UniProt Q13258); assay: FLIPR Ca2+ signaling PG antagonist assay, DP1 stable cell line; settings: HEK-293 EBNA cells, human recombinant DP1 with chimeric Gqs; standard agonist BW 245C; read-out: DP (Kb, PG antagonist activity)
T1 construct: expressed in transfected cells
T1 sequence (Q13258 1-359): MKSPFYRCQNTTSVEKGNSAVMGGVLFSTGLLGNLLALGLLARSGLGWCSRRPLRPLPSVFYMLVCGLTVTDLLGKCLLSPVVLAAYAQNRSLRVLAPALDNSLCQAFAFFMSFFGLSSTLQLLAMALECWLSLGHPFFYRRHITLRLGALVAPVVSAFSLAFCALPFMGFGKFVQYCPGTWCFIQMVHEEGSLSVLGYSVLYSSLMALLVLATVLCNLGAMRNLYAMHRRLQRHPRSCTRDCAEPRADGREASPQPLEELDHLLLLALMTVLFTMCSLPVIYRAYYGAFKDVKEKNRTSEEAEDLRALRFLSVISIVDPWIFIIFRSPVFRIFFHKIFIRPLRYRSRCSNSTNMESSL
Outline: (§1)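 Stable HEK-293 EBNA lines (DP1 with chimeric Gqs, EP3 with Gqi, EP1 and FP without exogenous G protein) were Fluo-4AM-loaded and pretreated 4.5 min at 37 °C with compound (0.1–30 μM). Agonist (BW 245C for DP1, PGE2 for EP1/EP3, 17-phenyl-PGF2α for FP) was then added at 10^−11–10^−5 M. Peak Ca2+ fluorescence was taken relative to agonist at 10^−6 M.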

[2] = biological target: T2, human prostanoid FP receptor (Homo sapiens, UniProt P43088); assay: FLIPR Ca2+ signaling PG antagonist assay, FP stable cell line; settings: HEK-293 EBNA cells, human recombinant FP, no exogenous G-protein; standard agonist 17-phenyl-PGF2α
T2 construct: expressed in transfected cells
T2 sequence (P43088 whole entry): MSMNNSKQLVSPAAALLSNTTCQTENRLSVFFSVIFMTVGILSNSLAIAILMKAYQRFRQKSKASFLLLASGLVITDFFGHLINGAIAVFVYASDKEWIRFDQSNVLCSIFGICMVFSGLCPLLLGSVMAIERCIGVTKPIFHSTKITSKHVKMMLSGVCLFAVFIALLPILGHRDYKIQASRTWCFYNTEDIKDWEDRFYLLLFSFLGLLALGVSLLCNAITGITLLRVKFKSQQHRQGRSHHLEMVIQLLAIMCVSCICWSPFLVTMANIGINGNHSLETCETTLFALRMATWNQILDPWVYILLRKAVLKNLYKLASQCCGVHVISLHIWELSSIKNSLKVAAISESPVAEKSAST
Outline: as §1

[3] = biological target: T3, human prostanoid EP1 receptor (Homo sapiens, UniProt P34995); assay: FLIPR Ca2+ signaling PG antagonist assay, EP1 stable cell line; settings: HEK-293 EBNA cells, human recombinant EP1, no exogenous G-protein; standard agonist PGE2
T3 construct: expressed in transfected cells
T3 sequence (P34995 1-402): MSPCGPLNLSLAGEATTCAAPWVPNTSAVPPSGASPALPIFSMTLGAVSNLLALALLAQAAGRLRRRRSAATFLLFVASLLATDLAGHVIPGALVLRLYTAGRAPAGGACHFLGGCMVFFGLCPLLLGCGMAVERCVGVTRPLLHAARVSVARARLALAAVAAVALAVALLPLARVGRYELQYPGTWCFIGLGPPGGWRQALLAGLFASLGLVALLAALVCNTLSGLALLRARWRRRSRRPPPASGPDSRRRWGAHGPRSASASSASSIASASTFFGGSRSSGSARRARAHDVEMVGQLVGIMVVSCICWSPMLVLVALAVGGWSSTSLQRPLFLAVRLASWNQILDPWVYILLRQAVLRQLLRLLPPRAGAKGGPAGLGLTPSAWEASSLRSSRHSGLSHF
Outline: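 HEK-293 EBNA stable lines; EP2 co-expressed with chimeric Gqs, EP1/IP/TP with no exogenous G protein. Fluo-4AM-loaded cells pretreated 4.5 min at 37 °C with compound (0.1–30 μM; TP 0.067–1 μM), then standard agonist (PGE2, cicaprost, U-46619) 10^−11–10^−5 M (TP 10^−12–10^−6 M); peak fluorescence read 3.5 min, nonlinear regression.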

| SMILES | Kb [1] [nM] | Kb [2] [nM] | Kb [3] [nM] |
| --- | --- | --- | --- |
| CC(C)COc1ccc(Br)cc1Cn1ccc2nc(C(=O)O)ccc21 [Example 73, 1-(5-Bromo-2-Isobutoxy-Benzyl)-1H-Pyrrolo[3,2-B]Pyridine-5-Carboxylic Acid] | ≥ 10000 | 430 | 80 |
| CC(C)COc1ccc(OC(F)(F)F)cc1Cn1ccc2cc(C(=O)O)cnc21 [Example 74, 1-(2-Isobutoxy-5-Trifluoromethoxy-Benzyl)-1H-Pyrrolo[2,3-B]Pyridine-5-Carboxylic Acid] | 290 | 660 | 60 |
| Cc1cn(Cc2cc(OC(F)(F)F)ccc2OCC(C)C)c2ccc(C(=O)O)cc12 [Example 75, 1-(2-Isobutoxy-5-Trifluoromethoxy-Benzyl)-3-Methyl-1H-Indole-5-Carboxylic Acid] | 1300 | 330 | 20 |
| CCC(CC)COc1ccc(OC(F)(F)F)cc1Cn1cc(C)c2cc(C(=O)O)ccc21 [Example 77, 1-[2-(2-Ethyl-Butoxy)-5-Trifluoromethoxy-Benzyl]-3-Methyl-1H-Indole-5-Carboxylic Acid] | 3600 | 9600 | 900 |
| CCC(CC)COc1ccc(Br)cc1Cn1cnc2cc(C(=O)O)ccc21 [Example 78, 1-[5-Bromo-2-(2-Ethyl-Butoxy)-Benzyl]-1H-Benzoimidazole-5-Carboxylic Acid] | 3800 | 800 | 145 |
| CC(C)COc1ccc(Br)cc1Cn1cnc2cc(C(=O)O)ccc21 [Example 79, 1-(5-Bromo-2-Isobutoxy-Benzyl)-1H-Benzoimidazole-5-Carboxylic Acid] | 2000 | 80 | 11 |
